# Experimental data: US20240269096A1, “Rapid Onset Therapeutic Ketosis Enabled by D-BetaHydroxyButyric Acid Systems, Compounds and Methods for Sepsis Protection and Enhanced Medical Recovery” (American Ketone Therapeutics LLC, priority 2022, published 2024)
# “And” between values parts separate entries of the source, which are not always exact repeats. Equal entries are not always repeated.
# Legend:
# [1] = Blood ketone levels by Abbott blood test strip after oral free D-BHB; assay type: in vivo, human
# Excerpt: FIG. 9 is a graphical illustration of D-BHB exogenous ketone blood levels. The above Abbot blood ketone meter evidenced by Abbott blood test strip depicts the rapid rise in blood ketone levels from 0.1 mmol/L (absence of ketosis) to 2.7 mmol/L (ketosis) after oral bolus administration of 15 grams of bioidentical free D-BetaHydroxyButyric Acid. The ketone levels depicted are attained in the absence of a salt as well as without ester bonds. It is the free acid D-BHB exogenously administered which is bio-identical to the endogenous D-BHB free acid generated by the human body. The bioidentical ketone body D-BHB is first and foremost an energy source, which is directly and preferentially metabolized by the brain. D-BHB is also active as a signaling mechanism and neuro-inflammation reduction agent, resulting in broad and beneficial brain bioenergy related benefits.
# FIG. 10 is a graphical illustration of D-BHB exogenous ketone blood levels. FIG. 10 details rapid ketosis within 45 minutes confirmed by Abbott blood test strip after 10 g D-BHB with palatability agent administered by oral drink. Blood ketone levels document rise from 0.2 mmol/L to 1.8 mmol/L and 0.6 mmol/L to 1.9 mmol/L in a variety of test subjects. FIG. 10 reinforces the fact that supplementation by utilizing free D only BetaHydroxyButyric Acid without ketone salt or ketone ester is a reliable, reproduceable method and system for rapid ketone level increase for stroke recovery and maintenance. While amounts of free D only BetaHydroxyButyric Acid taken for stroke effects may vary, it is an anticipated preferred embodiment that levels between 5 and 30 grams of D only BetaHydroxyButyric Acid are taken as needed for optimum recovery. Alternate embodiments may include lower or higher amounts, however, experimental evidence has confirmed optimal administration in this range for a wide variety of other applications.
# [2] = Continuous glucose monitoring (Abbot Libre CGM) with carbohydrate challenge; assay type: in vivo; details: 10 g administered 45 minutes before 50 g carbohydrate ingestion; versus unsupplemented ingestion
# Excerpt: FIG. 11 is a graphical illustration of continuous monitoring of body glucose levels. FIG. 11 depicts continuous glucose monitoring levels with carbohydrate challenge documented by Abbot Libre Continuous Glucose Monitoring (CGM) device. In this illustrative embodiment, glucose levels from a 50 g carbohydrate ingestion are depicted unaided by free D-BetaHydroxyButyric Acid on the left and repeated the following day with two 50 g carbohydrate ingestions accompanied by 10 g free D-BetaHydroxyButyric Acid administered 45 minutes before the carbohydrate insult. […] As free D-BetaHydroxyButyric Acid can lower glucose while rapidly increasing ketone levels, it is believed that obtaining high ketones while lowering glucose will yield additional stroke recovery benefits for high glucose sensitive individuals suffering from sepsis and may be considered in lieu of insulin administration.
# [3] = Continuous Ketone Meter (CKM) monitoring of body ketone levels and deep sleep; assay type: in vivo; details: 5 grams consumed 45 minutes prior to bedtime
# Excerpt: FIG. 12 is a graphical illustration of continuous monitoring of body ketone levels resulting in improved deep sleep time due to enhanced D-BHB levels according to the claimed invention. It is noteworthy that consumption of even small amounts of free D-BetaHydroxyButyric Acid can give rise to therapeutic ketosis levels as measured by Continuous Ketone Meter (CKM). […] While free D-BetaHydroxyButyric Acid is not a sedative, even small amounts can greatly improve deep sleep quantity and quality. It is an intended and foreseeable embodiment application to increase deep sleep with free D-BetaHydroxyButyric Acid with the aim of guarding against sepsis, improving hospital recovery and enhanced resiliency.
# [4] = compared with ketone salts; FIG. 5 literature data; cited from earlier work
# [5] = tested on: LPS-induced myocardial injury and cardiac dysfunction; details: mouse model; study utilized the synthetic ketone ester; cited from earlier work
# NLRP3 inflammasome = target: T1, NLRP3 inflammasome (Homo sapiens, UniProt Q96P20); details: independently of GPR109A binding or mitochondrial oxidation; cited from earlier work
# T1 construct: host or cells: macrophages
# T1 sequence (Q96P20 whole entry): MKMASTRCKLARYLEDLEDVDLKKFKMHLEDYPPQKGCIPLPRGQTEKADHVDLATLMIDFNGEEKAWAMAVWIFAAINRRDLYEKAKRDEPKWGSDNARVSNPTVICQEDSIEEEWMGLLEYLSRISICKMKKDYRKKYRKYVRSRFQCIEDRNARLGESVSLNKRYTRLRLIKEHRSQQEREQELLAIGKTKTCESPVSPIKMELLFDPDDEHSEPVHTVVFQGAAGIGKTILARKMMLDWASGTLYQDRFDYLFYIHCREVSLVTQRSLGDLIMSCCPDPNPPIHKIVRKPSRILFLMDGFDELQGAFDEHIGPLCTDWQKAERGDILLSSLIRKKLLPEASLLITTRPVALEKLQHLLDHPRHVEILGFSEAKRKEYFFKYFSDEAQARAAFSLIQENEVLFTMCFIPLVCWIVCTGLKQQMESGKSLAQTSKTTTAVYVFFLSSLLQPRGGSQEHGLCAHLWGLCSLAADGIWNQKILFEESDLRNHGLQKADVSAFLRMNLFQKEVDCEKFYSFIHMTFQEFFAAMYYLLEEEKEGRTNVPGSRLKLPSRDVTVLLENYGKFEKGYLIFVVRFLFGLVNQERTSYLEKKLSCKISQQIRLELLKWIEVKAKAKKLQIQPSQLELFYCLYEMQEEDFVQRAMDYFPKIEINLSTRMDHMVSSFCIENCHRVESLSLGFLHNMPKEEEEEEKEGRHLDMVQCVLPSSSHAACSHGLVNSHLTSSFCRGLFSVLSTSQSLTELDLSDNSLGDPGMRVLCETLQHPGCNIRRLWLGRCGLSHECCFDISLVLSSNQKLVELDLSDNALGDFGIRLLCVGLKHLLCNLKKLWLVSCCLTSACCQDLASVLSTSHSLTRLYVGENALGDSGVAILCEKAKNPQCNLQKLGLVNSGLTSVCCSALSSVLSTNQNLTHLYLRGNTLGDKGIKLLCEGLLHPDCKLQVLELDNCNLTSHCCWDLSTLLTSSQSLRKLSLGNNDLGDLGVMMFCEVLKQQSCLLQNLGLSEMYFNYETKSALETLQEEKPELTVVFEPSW
compound,measurement,setting,value
"C[C@@H](O)CC(=O)O [D-BHB, D-β-HydroxyButyric Acid]",time to ketosis,[1]; 10 g with palatability agent by oral drink,≤ 45 min
same,blood ketone levels after administration,"[1]; 10 g with palatability agent by oral drink, within 45 minutes, rise from 0.2 and 0.6 mmol/L respectively, different test subjects",1.8 mmol/L and 1.9 mmol/L
same,blood ketone levels after administration,"[1]; oral bolus of 15 grams, rise from 0.1 mmol/L (absence of ketosis)",2.7 mmol/L
same,glucose spike after carbohydrate ingestion,[2],the rapid glucose spike depicted in the unsupplemented ingestion is not found
same,increase in ketone level (CKM),[3],1.5 mmol/L
same,quantity of deep sleep,[3],enhance the quantity of deep sleep obtained
"C[C@@H](O)CCOC(=O)C[C@@H](C)O [ketone ester, (R)-3-hydroxybutyl (R)-3-hydroxybutyrate]",ketone level response,[4],higher ketone level response
"CC(O)CC(=O)O (stereo not drawn) [β-OHB, β-Hydroxybutyrate]",effect on LPS-induced myocardial injury and cardiac dysfunction,[5],prevent LPS-induced myocardial injury and cardiac dysfunction
same,effect on NLRP3 inflammasome in macrophages,NLRP3 inflammasome,inhibits the NLRP3 inflammasome
